Data on twelve compounds can be found in patent publication US8236492B2 (priority 2003, dated 2012).

The structures appear in SMILES notation.

The experiment relates to ileal fluid dependant organism (IFDO). It is filed as cell-based.

Take `Oc1ccc(Cl)cc1Cc1cc(Cl)ccc1O` [2,2-Methylenebis(4-chlorophenol)]: the “Log10 Reduction of Colonies” value is recorded as 3.8.
The same measure, in the same setting: with `Cc1cccc(O)c1C` [2,3-Dimethylphenol] the figure was 4.1.
Still for that read-out and setting: then `Oc1cc(Cl)c(Cl)cc1Cl` [2,4,5-Trichlorophenol], with 4.9; and `Oc1c(Cl)cc(Cl)c(Cl)c1Cc1c(O)c(Cl)cc(Cl)c1Cl` [Hexachlorophene], with 3.6.
Turning to `CCC(C)(C)c1ccc(O)cc1` [PTAP, p-tertiary-amylphenol], the “efficacy of LpH phenols tested at equivocal concentrations” value (“efficacy of LpH phenols tested” below) is listed as “less effective”.
As to `Oc1ccccc1` [Phenol], the “Log10 Reduction of Colonies” value is 3.6.
Same read-out and setting: then `Cc1ccc(C(C)C)c(O)c1` [Thymol], with 3.2; and `Oc1cc(Cl)ccc1Oc1ccc(Cl)cc1Cl` [Triclosan], with 2.7.
With `Oc1ccc(Cl)cc1Cc1ccccc1` [o-Benzyl-p-chlorophenol], the “Log10 Reduction of Colonies” value stood at 4.7 and the “efficacy of LpH phenols tested” value was “optimal”.
For `Oc1ccccc1-c1ccccc1` [o-Phenylphenol], the “Log10 Reduction of Colonies” value was 4.8 and the “efficacy of LpH phenols tested” value is recorded as “optimal”.
`Cc1cc(O)ccc1Cl` [p-Chloro-m-cresol]: the “Log10 Reduction of Colonies” value is 4.3.
Still for that read-out and setting: with `Cc1ccc(O)cc1` [p-Cresol] the figure was 3.7.
